Patent publication US20180177805A1, “Intravitreal Lysine Acetylsalicylate As Treatment For Diabetic Retinopathy” (Fundación Para El Fomento De La Investigación Sani taria Y …, priority 2015, published 2018)

Assays:
[1] = system: blood vessels of the retina; experiment: Vascular density (blood vessel count per tissue section) in retina, streptozotocin diabetic retinopathy model, after intravitreal injection; type: in vivo, Wistar rat; conditions: for VESSELS count: treated (CASE) diabetic rats
Source text: 3. Vascular density: the chronic inflammation caused in diabetic retinopathy involves obliteration and death of the blood vessels. […] This scenario is a final stage of the phenomenon known as diabetic microangiopathy. Thus, determining the number of vessels present in each section of tissue can give us information concerning whether or not the medicament is capable of positively or negatively influencing the capillary density of the retina (vessels/portion of tissue).
(§1) Pursuant to approval of the Bioethics Committee for Research of the University of Miguel Hernandez de Elche and based on the international standards for the use of animal experimentation, […] confined male Wistar rat specimens weighing 200 grams were induced to suffer diabetes by means of injecting intraperitoneal streptozotocin (75 mg/kg) in a single dose. The animals were monitored during the whole study continuously in terms of weight, blood sugar, loss of hair and formation of cataracts. All the animals were exposed to the same parameters of light, darkness and availability of water and food.
(§2) For the intravitreal injection, the animals were anesthetized with a mixture in a proportion of 1:1 of xylazine hydrochloride (4 mg/kg) and ketamine hydrochloride (10 mg/kg). Under mydriasis with 0.5% tropicamide, the intravitreal injection of the lysine acetylsalicylate solution was carried out under a surgical microscope with a micro injection syringe (Hamilton Co., Reno, Nev.) and a 32 gauge needle at 1 millimeter from the temporal limbus. Only half the diabetic animals were treated with the intravitreal solution, the rest of the animals were left to develop diabetic retinopathy naturally. The process of intravitreal injection was repeated in the same way, technique and dose in the same animals 4 weeks after the initial treatment. Summary of the organization of the experimental test: • Initially, the animals were evaluated prior to including them in the experimental test to discard those with defects or basic ocular changes. • The inducement of diabetes was carried out in all the animals by means of injecting intraperitoneal streptozotocin. • The blood sugar indices were compared at 24 and 48 hours of the injection to assess whether the inducement had been successful. • Once diabetes was confirmed, the animals were divided into two groups formed by 8 rats each. • Following the diabetic retinopathy model in rats, diabetes was left to develop naturally in both groups over the first 12 weeks.
(§3) Laminar sections of the retina of all the animals were carried out, being exposed to the action of 4% formaldehyde preservatives. For the marking of the endothelial cells, an anti-ICAM1 monoclonal antibody was used, we also used anti-CD18 monoclonal antibodies for the staining of the leucocytes. After fixing the different sections of stained tissue, the positively stained molecules and the amount of blood vessels present were counted under an optical microscope (Leica® microsystem) with 10× magnification.
For the purposes of assessing significant differences between the different regions of the retina, in all the tissues, the cell and vessel counts corresponding to the central retina (between optical nerve and macular area) and those corresponding to the peripheral retina (outside of the vascular arches) were carried out separately. These counts were specifically carried out on two layers of the retina: the external plexiform layer and the ganglion cell layer. […]

retina = system: retina; parameters: species or system Wistar rat; conditions: rat, in vivo
Experimental: as §2, with “The process of intravitreal injection was repeated in the same way, technique and dose in the same animals 4 weeks after the initial treatment.” left out, “weeks. […]” for “weeks.”

CD18 leucocyte marker = experiment: CD18 leucocyte count by immunohistochemistry in retina sections, streptozotocin diabetic retinopathy model, after intravitreal injection; type: in vivo, Wistar rat; conditions: for CD18 count: treated (CASE) diabetic rats
Source text: 1. CD18 leucocyte marker: the leucocyte is the main effector cell of the inflammatory response of the tissues, something which also occurs in the retina. CD18 is a surface molecule which is expressed in the membranes of the leucocytes activated in tissues where there is inflammation, as is the case with the diabetic retina. Determine its absolute and relative number helps to know whether the injected solution is capable of reducing the presence of leucocytes activated in determined layers of the retina as part of their anti-inflammatory action.
as §1, §2, §3
For the purposes of assessing significant differences between the different regions of the retina, in all the tissues, the cell and vessel counts corresponding to the central retina (between optical nerve and macular area) and those corresponding to the peripheral retina (outside of the vascular arches) were carried out separately. These counts were specifically carried out on two layers of the retina: the external plexiform layer and the ganglion cell layer.
The U Mann-Whitney contrast test was used for independent samples. To contrast the correlation between the variables, the Spearman test was used.

[2] = system: ICAM-1 endothelial marker; experiment: ICAM-1 endothelial cell count by immunohistochemistry in retina sections, streptozotocin diabetic retinopathy model, after intravitreal injection; type: in vivo, Wistar rat; conditions: treated (CASE) diabetic rats
Source text: 2. […] ICAM-1 is a transmembrane protein present in the endothelial cells and practically specific to them. Its immunohistochemical staining allows the endothelial cells present in the different layers of examined tissues to be quantitatively indicated and assessed and it gives us information concerning the vascularization of the examined tissues and the integrity of the vascular wall.
as §1, §2
Laminar sections of the retina of all the animals were carried out, being exposed to the action of 4% formaldehyde preservatives. […] After fixing the different sections of stained tissue, the positively stained molecules and the amount of blood vessels present were counted under an optical microscope (Leica® microsystem) with 10× magnification. […]

[3] = central retina, external plexiform layer, 25 micrograms intravitreal at weeks 12 and 16, sacrifice week 20
[4] = peripheral retina, external plexiform layer
[5] = peripheral retina, ganglion layer
[6] = treated animals, central retina (text says plexiform layer), range 3-6

With `CC(=O)Oc1ccccc1C(=O)O` [lysine acetylsalicylate] the VESSELS count [1, 3] was 9.0 (7.0-11.0), the VESSELS count ([1]; central retina, ganglion layer) was 5.0 (2.8-6.0) and the VESSELS count [1, 4] was 6.0 (5.0-7.0). For the same compound, the VESSELS count [1, 5] was 3.0 (1.8-4.0), the “vessels per tissue section, average” value [1, 6] was 5 and the “signs of medicament toxicity (de-structuring of retinal layers, absence of photoreceptor cells, histological alterations of optical nerve)” value (retina) was “No tissues were found to have signs that showed alterations suggesting toxicity”. The CD18 count (CD18 leucocyte marker; [3]) was 16.5 (14.0-18.0), the CD18 count (CD18 leucocyte marker; central retina, ganglion layer) was 5.0 (3.0-6.0) and the CD18 count (CD18 leucocyte marker; [4]) was 8.0 (6.0-9.0). For the same compound, the CD18 count (CD18 leucocyte marker; [5]) was 3.0 (2.0-4.0), the “CD18 count, average” value (CD18 leucocyte marker; [6]) was 5 and the “leucocytes per field relative to number expected from vessel count (regression model)” value (CD18 leucocyte marker; treated group, central retina, expected at least 10 leucocytes per field) was “half the leucocytes which would be expected”. For the same compound, the ICAM1 count [2, 3] was 15.0 (14.0-17.5), the ICAM1 count ([2]; central retina, ganglion layer) was 4.0 (3.0-5.0) and the ICAM1 count [2, 4] was 9.0 (7.0-11.0). For the same compound, the ICAM1 count [2, 5] was 2.0 (1.3-3.0).
